For 26 molecules, IC50 and inhibition results are on record in US10882837B2, “Amide compounds and use thereof” (ALPHALA CO., LTD., priority 2017, dated 2021).

The structures appear in SMILES notation.

One assay deals with GCGR (Homo sapiens, UniProt P47871). The assay is described as follows: I125-glucagon binding assay (competition, GCGR membrane fractions). Also noted: expressed in transfected cells; host or cells: CHO-K1. As to conditions: for IC50: competition with I125-glucagon 0.0625 nM, membrane fractions from GCGR overexpressed CHO-K1 cells; for inhibition at 30 µM: compound at 30 μM, read-out: percentage of inhibition (number in parenthesis in IC50 binding column). Here is the method:
I^125-Glucagon Binding Assay
The binding affinity of each compound was evaluated by a competition assay with I^125-glucagon. GCGR membrane fractions were obtained from GCGR overexpressed CHO-K1 cells as a stock of 1 mg/ml concentration. To evaluate the IC50 of compounds binding to GCGR, GCGR membrane fractions were treated with compounds with a serial dilution. The membrane fractions were diluted to 7.5 microgram per well in 70 microliter assay buffer contained 50 mM Tris pH 7.4 and 0.5% (w/v) bovine serum albumin and added into 96 wells plate. The membrane fractions were then mixed with 10 microliter diluted compounds. After 5 minutes pre-incubation, 20 microliter I^125 labeled glucagon (Perkin Elmer) was added into each well at the final concentration of 0.0625 nM. The assay mixtures were incubated at 25° C. for 30 minutes and then transferred onto the Millipore Multiscreen GF/B Plate coated with 0.5% (w/v) Polyethyleneimine. The filter plate was washed with wash buffer contained 50 mM Tris pH 7.4 for 2 times, 300 microliter each time. The residual isotope was detected by Hidex CHAMELEON V micro-beta counter and the IC50 value of each compound binding to GCGR was calculated with non-linear regression.

The next assay concerns the target T1, glucagon receptor (GCGR) (Homo sapiens, UniProt P47871).
T1 construct: expressed in transfected cells; host or cells: CHO-K1
In words: Glucagon cAMP inhibition assay (Cisbio cAMP Dynamic 2 HTRF). It is filed as cell-based. To be noted: GCGR overexpressed CHO-K1 cells or human primary hepatocytes (not specified); glucagon at EC50. Here is the method:
Glucagon eAMP Inhibition Assay
Downstream secondary messenger eAMP induced by glucagon was detected by Cisbio cAMP Dynamic 2 kit. Testing compounds were each prepared as a dimethyl sulfoxide (DMSO) solution at the concentration of 10 mM. To evaluate the potency of compounds in inhibiting the cAMP production, glucagon receptor (GCGR) overexpressed CHO-K1 cells or human primary hepatocytes were treated with compounds with a serial dilution. The cells were re-suspended in Hank's Balanced Salt solution (HBSS) contained 0.1% (w/v) bovine serum albumin and 800 nM 3-isobutyl-1-methylxanthine (IBMX) and seeded into low volume, 384 wells white plate. The diluted compounds were then added into the plate for 30 minutes pre-incubation where the final DMSO concentration was 1%. The cells were stimulated with glucagon at the concentration equaled to EC50 (an indicium of the concentration of a drag that gives half-maximal response) for 30 minutes at room temperature. After incubation, lysis buffer contain cAMP antibody and fluorescence acceptor were added into each well for additional 60 minutes incubation. Results were recorded by Molecular Devices SpectraMax Paradigm with the HTRF Detection Cartridges and the IC50 value of each compound in inhibiting the cAMP production was calculated with non-linear regression based on the amount of cAMP production.

T1 sequence (P47871 26-477, species assumed): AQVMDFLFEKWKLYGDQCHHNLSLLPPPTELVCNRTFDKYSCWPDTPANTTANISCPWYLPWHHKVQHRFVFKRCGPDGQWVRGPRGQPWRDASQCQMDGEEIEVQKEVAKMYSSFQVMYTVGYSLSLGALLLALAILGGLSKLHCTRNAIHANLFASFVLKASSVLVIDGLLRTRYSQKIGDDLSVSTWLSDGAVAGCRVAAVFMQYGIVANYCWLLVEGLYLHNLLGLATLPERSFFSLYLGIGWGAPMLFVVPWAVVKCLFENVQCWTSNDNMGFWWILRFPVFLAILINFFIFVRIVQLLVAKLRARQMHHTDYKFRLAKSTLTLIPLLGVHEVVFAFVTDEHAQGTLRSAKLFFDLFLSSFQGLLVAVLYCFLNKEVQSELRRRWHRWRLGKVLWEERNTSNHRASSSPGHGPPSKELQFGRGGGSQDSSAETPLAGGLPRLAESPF
Sequence of GCGR (P47871 26-477, species assumed): as above

For orientation: IC50 means the point on the concentration scale where inhibition reaches its midpoint. For `CC(C)[C@H](Nc1ccc(C(=O)NCCC(=O)O)cc1)c1ccc(-c2nnc(C(F)(F)F)o2)cc1` (racemic) [Compound 1-57, (RS)-3-(4-((2-methyl-1-(4-(5-(trifluoromethyl)-1,3,4-oxadiazol-2-yl)phenyl)propyl)amino)benzamido)propanoic acid], the half-inhibitory concentration (IC50) was 2500 nM at GCGR and over 30000 nM against glucagon receptor (GCGR).
As to `CC(C)C(Nc1ccc(C(=O)NCCC(=O)O)cc1)c1ccc(-c2nnc(-c3ccccc3)o2)cc1` (stereo not drawn) [Compound 1-1, 3-(4-((2-Methyl-1-(4-(5-phenyl-1,3,4-oxadiazol-2-yl)phenyl)propyl)amino)benzamido)propanoic acid], the IC50 on GCGR was 27 nM; against glucagon receptor (GCGR), 4690 nM.
In the same order, the values of `COC(=O)CCNC(=O)c1ccc(NC(c2ccc(-c3nnc(-c4ccccc4)o3)cc2)C(C)C)cc1` (stereo not drawn) [Compound 1-2, Methyl 3-(4-((2-methyl-1-(4-(5-phenyl-1,3,4-oxadiazol-2-yl)phenyl)propyl)amino)benzamido)propanoate] are 1220 nM and 113 nM.
For orientation: inhibition means the relative decrease from the control value, in per cent. As to `CCOC(=O)CCNC(=O)c1ccc(NC(c2ccc(-c3nnc(-c4ccccc4)o3)cc2)C(C)C)cc1` (stereo not drawn) [Compound 1-3, Ethyl 3-(4-((2-methyl-1-(4-(5-phenyl-1,3,4-oxadiazol-2-yl)phenyl)propyl)amino)benzamido)propanoate], the IC50 at GCGR amounted to 1870 nM; at glucagon receptor (GCGR) it was 55 nM. Further, the inhibition at 30 µM on GCGR was found to be 43%.
Turning to `CC(C)C(Nc1ccc(C(=O)NCCC(=O)O)cc1)c1ccc(-c2nnc(C(F)(F)F)o2)cc1` (stereo not drawn) [Compound 1-4, 3-(4-((2-Methyl-1-(4-(5-(trifluoromethyl)-1,3,4-oxadiazol-2-yl)phenyl)propyl)amino)benzamido)propanoic acid], the IC50 at GCGR was 433 nM; against glucagon receptor (GCGR) it was over 30000 nM.
For `CC(C)CC(Nc1ccc(C(=O)NCCC(=O)O)cc1)c1ccc(-c2nnc(-c3ccccc3)o2)cc1` (stereo not drawn) [Compound 1-5, 3-(4-((3-Methyl-1-(4-(5-phenyl-1,3,4-oxadiazol-2-yl)phenyl)butyl)amino)benzamido)propanoic acid], the values for the IC50 at GCGR and against glucagon receptor (GCGR) were 175 nM and 4130 nM, respectively.
The matching figures for `CCCC(Nc1ccc(C(=O)NCCC(=O)OCC)cc1)c1ccc(-c2nnc(-c3ccccc3)o2)cc1` (stereo not drawn) [Compound 1-6, Ethyl 3-(4-((1-(4-(5-phenyl-1,3,4-oxadiazol-2-yl)phenyl)butyl)amino)benzamido)propanoate]: 2610 nM and 31 nM.
For the molecule `CCCC(Nc1ccc(C(=O)NCCC(=O)O)cc1)c1ccc(-c2nnc(-c3ccccc3)o2)cc1` (stereo not drawn) [Compound 1-7], the IC50 on GCGR turned out to be 211 nM; at glucagon receptor (GCGR), 3330 nM.
In the same order, the values of `CCCC(Nc1ccc(C(=O)NCCC(=O)O)cc1)c1ccc(-c2nnc(C(F)(F)F)o2)cc1` (stereo not drawn) [Compound 1-8, 3-(4-((1-(4-(5-(Trifluoromethyl)-1,3,4-oxadiazol-2-yl)phenyl)butyl)amino)benzamido)propanoic acid] are 651 nM and over 30000 nM.
For the molecule `CC(C)CC(Nc1ccc(C(=O)NCCC(=O)O)cc1)c1ccc(-c2nnc(C(F)(F)F)o2)cc1` (stereo not drawn) [Compound 1-9, 3-(4-((3-Methyl-1-(4-(5-(trifluoromethyl)-1,3,4-oxadiazol-2-yl)phenyl)butyl)amino)benzamido)propanoic acid], the IC50 at GCGR was determined as 956 nM; against glucagon receptor (GCGR), 17100 nM.
Consider `CCOC(=O)CCNC(=O)c1ccc(NC(c2ccc(-c3nnc(-c4ccccc4)o3)cc2)C(C)CC)cc1` (stereo not drawn) [Compound 1-10, Ethyl 3-(4-((2-methyl-1-(4-(5-phenyl-1,3,4-oxadiazol-2-yl)phenyl)butyl)amino)benzamido)propanoate], for which, at GCGR, the IC50 turned out to be 1870 nM and the inhibition at 30 µM turned out to be 34%. At glucagon receptor (GCGR), this molecule had an IC50 of 25 nM.
As to `CCC(C)C(Nc1ccc(C(=O)NCCC(=O)O)cc1)c1ccc(-c2nnc(-c3ccccc3)o2)cc1` (stereo not drawn) [Compound 1-11, 3-(4-((2-Methyl-1-(4-(5-phenyl-1,3,4-oxadiazol-2-yl)phenyl)butyl)amino)benzamido)propanoic acid], the results for the 50% inhibitory concentration (IC50) at GCGR and at glucagon receptor (GCGR) were 72 nM and 2540 nM, respectively.
`CC(C)CC(Nc1ccc(C(=O)NCCC(=O)O)cc1)c1ccc(-c2nnc(C(C)(C)C)o2)cc1` (stereo not drawn) [Compound 1-12]: the IC50 on GCGR came to 455 nM; on glucagon receptor (GCGR), 6710 nM.
In the same order, the values of `CCCCC(Nc1ccc(C(=O)NCCS(=O)(=O)O)cc1)c1ccc(-c2nnc(-c3ccccc3)o2)cc1` (stereo not drawn) [Compound 1-13, 2-(4-((1-(4-(5-phenyl-1,3,4-oxadiazol-2-yl)phenyl)pentyl)amino)benzamido)ethane-1-sulfonic acid] are 314 nM and over 30000 nM.
For `CCCCC(Nc1ccc(C(=O)NCCC(=O)O)cc1)c1ccc(-c2nnc(C(F)(F)F)o2)cc1` (stereo not drawn) [Compound 1-14, 3-(4-((1-(4-(5-(trifluoromethyl)-1,3,4-oxadiazol-2-yl)phenyl)pentyl)amino)benzamido)propanoic acid], the IC50 was found to be 379 nM at GCGR and 3450 nM at glucagon receptor (GCGR).
In the same order, the values of `CCCCC(Nc1ccc(C(=O)NCCC(=O)OCC)cc1)c1ccc(-c2nnc(-c3ccccn3)o2)cc1` (stereo not drawn) [Compound 1-15] are 578 nM and 306 nM.
On to `CCCCC(Nc1ccc(C(=O)NCCC(=O)O)cc1)c1ccc(-c2nnc(-c3ccccn3)o2)cc1` (stereo not drawn) [Compound 1-16, 3-(4-((1-(4-(5-(Pyridin-2-yl)-1,3,4-oxadiazol-2-yl)phenyl)pentyl)amino)benzamido)propanoic acid], for which the IC50 came out at 203 nM at GCGR and 15700 nM against glucagon receptor (GCGR).
As for `CCOC(=O)CCNC(=O)c1ccc(NC(c2ccc(-c3nnc(-c4ccc(F)cc4)o3)cc2)C(C)C)cc1` (stereo not drawn) [Compound 1-17], on GCGR, the IC50 was 3510 nM and the inhibition at 30 µM was 53%. Besides, the IC50 against glucagon receptor (GCGR) worked out at 322 nM.
With `CC(C)C(Nc1ccc(C(=O)NCCC(=O)O)cc1)c1ccc(-c2nnc(-c3ccc(F)cc3)o2)cc1` (stereo not drawn) [Compound 1-18, 3-(4-((1-(4-(5-(4-Fluorophenyl)-1,3,4-oxadiazol-2-yl)phenyl)-2-methylpropyl)amino)benzamido)propanoic acid], the IC50 on GCGR came out at 122 nM; against glucagon receptor (GCGR), 4350 nM.
Regarding `CCCCC(Nc1ccc(C(=O)NCCC(=O)OCC)cc1)c1ccc(-c2nnc(C(C)(C)C)o2)cc1` (stereo not drawn) [Compound 1-19, Ethyl 3-(4-((1-(4-(5-(tert-butyl)-1,3,4-oxadiazol-2-yl)phenyl)pentyl)amino)benzamido)propanoate], the IC50 was 4410 nM at GCGR and 203 nM against glucagon receptor (GCGR).
For `CCCCC(Nc1ccc(C(=O)NCCC(=O)O)cc1)c1ccc(-c2nnc(C(C)(C)C)o2)cc1` (stereo not drawn) [Compound 1-20, 3-(4-((1-(4-(5-(tert-butyl)-1,3,4-oxadiazol-2-yl)phenyl)pentyl)amino)benzamido)propanoic acid], the IC50 was determined as 562 nM at GCGR and 15200 nM against glucagon receptor (GCGR).
`CCOC(=O)CCNC(=O)c1ccc(NC(c2ccc(-c3nnc(C(C)(C)C)o3)cc2)C(C)CC)cc1` (stereo not drawn) [Compound 1-21, Ethyl 3-(4-((1-(4-(5-(tert-butyl)-1,3,4-oxadiazol-2-yl)phenyl)-2-methylbutyl)amino)benzamido)propanoate]: the IC50 at GCGR stood at 3310 nM; on glucagon receptor (GCGR), 126 nM.
Consider `CCC(C)C(Nc1ccc(C(=O)NCCC(=O)O)cc1)c1ccc(-c2nnc(C(C)(C)C)o2)cc1` (stereo not drawn) [Compound 1-22, 3-(4-((1-(4-(5-(tert-butyl)-1,3,4-oxadiazol-2-yl)phenyl)-2-methylbutyl)amino)benzamido)propanoic acid], for which the figures for the IC50 on GCGR and against glucagon receptor (GCGR) were 246 nM and 10300 nM, respectively.
With `CCOC(=O)CCNC(=O)c1ccc(NC(c2ccc(-c3nnc(C(C)(C)C)o3)cc2)C(C)C)cc1` (stereo not drawn) [Compound 1-23], the IC50 at GCGR stood at 18700 nM; against glucagon receptor (GCGR) it was 180 nM.
In the same order, the values of `CC(C)C(Nc1ccc(C(=O)NCCC(=O)O)cc1)c1ccc(-c2nnc(C(C)(C)C)o2)cc1` (stereo not drawn) [Compound 1-24, 3-(4-((1-(4-(5-(tert-butyl)-1,3,4-oxadiazol-2-yl)phenyl)-2-methylpropyl)amino)benzamido)propanoic acid] are 314 nM and over 30000 nM.
`CCCC[C@H](Nc1ccc(C(=O)NCCC(=O)O)cc1)c1ccc(-c2noc(-c3ccccc3)n2)cc1` [Compound 2-34, (S)-3-(4-((1-(4-(5-phenyl-1,2,4-oxadiazol-3-yl)phenyl)pentyl)amino)benzamido)propanoic acid]: on GCGR, the IC50 is over 30000 nM.
